Holding throughout (format): cell-based
Experiment [1] deals with resting S. clavuligerus NP1 cells. As to the kind of experiment: Penicillin G ring expansion by resting cells grown on alcohol (Example 3).
For experiment [2], the system named is immobilized S. clavuligerus NP1 cells. As to the kind of experiment: Conversion of penicillin G by immobilized cells (Example 5). On the procedure:
Culture Conditions: A seed culture of S. clavuligerus mutant NP-1 was made by thawing a frozen preparation of spores and inoculating 40μl into 40 ml MST medium containing 90 mM MOPS buffer, pH 7.0, 1% starch and 3% trypticase soy broth medium without dextrose (BBL Becton Dickinson Microbiology Systems, Cockeysville, Md.) in 250 ml baffled flasks. The flasks were incubated for 2 days at 30° C. and 250 rpm. One ml of the seed culture was used as inoculum for the main culture which contained 80 ml of MST medium in 500 ml unbaffled flasks. The flasks were incubated for 24 h at 30° C. and 250 rpm.
Preparation of Resting Cells: Cells were harvested by centrifugation at 14,000×g for 15 min at 4° C. and washed twice with cold deionized water. Washed cells were resuspended in 10 ml of water giving a concentration (wet weight) of about 0.31 g/ml.
Preparation of Polyethyleneimine (PEI)-Barium Alginate Entrapped Cells: Resting cells from a one-day old culture of S. clavuligerus NP-1 (2 g wet weight) were directly resuspended in 20 ml of 1.5% (w/v) sodium alginate solution. The resulting sodium alginate-cell suspension was placed into a 10 ml plastic syringe containing a 26.6 G needle. The suspension was added drop by drop into a slowly stirring hardening solution of 2% (w/v) barium chloride containing 1% (w/v) PEI, giving beads of about 1.5-2.0 mm in diameter. […]

The test system of experiment [3] is resting S. clavuligerus NP1 cells. As to the kind of experiment: Penicillin G conversion by resting cells: buffer, preincubation, substrate concentration (Example 4). On the procedure:
Microorganisms, Media, and Culture Conditions: S. clavuligerus mutant NP-1, described in Example 1 was used for these studies. A seed culture was made by inoculating a spore suspension (40 μl) into 40 ml MST medium in 250 ml baffled flasks, and incubating for 2 days at 30° C. and 250 rpm. One ml of the seed culture was used as inoculum for the main culture which contained 80 ml of MST medium in 500 ml unbaffled flasks. The flasks were incubated for 24 h at 30° C. and 250 rpm.
Preparation of Resting Cells: Cells were harvested by centrifugation at 14,000×g, for 15 min at 4° C. and washed twice with cold deionized water. They were resuspended in 10 ml of water.
Ring Expansion Reaction: The standard reaction mixture (10 ml) contained 0.05 M Tris-HCl pH 7.4, 8.0 mM KCl, 8.0 mM MgSO4.7H2O, 4.0 mM ascorbic acid, 1.8 mM FeSO4.7H2O, 1.28 mM α-ketoglutaric acid, 20 mg/ml penicillin G and 4.0 ml cell suspension. The order of addition of the components were as previously described (Shen et al., Enzyme Microb. Technol. 6:402-404, 1984). The reaction started when penicillin G was added to the reaction mixture which was incubated at 30° C. and 220 rpm.
Expandase Assay: Product formation was estimated by the paper disk-agar diffusion bioassay as described in example 1, using deacetoxycephalosporin G as standard. Escherichia coli strain Ess, a β-lactam supersensitive, mutant was used as the assay microorganism.

Bounds are passed on as bounds.

With `CC1(C)S[C@@H]2[C@H](NC(=O)Cc3ccccc3)C(=O)N2[C@H]1C(=O)O` [Penicillin G, penicillin G], in experiment [1] (cells grown in MST medium with addition of an alcohol), the “penicillin G expansion” value was “completely inhibited”. In addition, the “Cephalosporin Production Volumetric” value in experiment [1] (cells grown in MST, 3 hours of reaction, 5.6 mM penicillin G) was 5.8 µg/mL. Moreover, the “Cephalosporin Production Specific” value in experiment [1] (cells grown in MST, 3 hours of reaction, 5.6 mM penicillin G, per mg DCW) is 1.0 µg/mg. In addition, the “cephalosporin production” value in experiment [2] (cells immobilized in agarose (4% w/v) and k-carrageenan (3% w/v)) is recorded as “did not observe cephalosporin production”. Further, the “ring expansion” value in experiment [2] (resting cells entrapped in PEI-barium alginate (1.5%)) was “able to expand penicillin G”. Besides, the percent conversion in experiment [3] (0.015 mg/ml substrate, subsequent experiments) is listed as at most 16.5%; in experiment [3] (0.063 mg/ml of penicillin G), “about 9.0%”; in experiment [3] (2 mg/ml of penicillin G) it was “about 1.0%”; in experiment [3] (8 mg/ml of penicillin G), “about 0.4%”. In experiment [3] (0.05 M MOPS pH 6.5 or 0.05 M HEPES pH 6.5), the “increase of cephalosporin production versus 0.05 M Tris-HCl pH 7.4” value was “more than two-fold”. For the same compound, the “penicillin G conversion” value in experiment [3] (cells preincubated 3 hours with Fe2+ and ascorbic acid, with or without α-ketoglutarate) is “virtually eliminated”. In experiment [3] (cells preincubated 3 hours with either buffer, Fe2+, ascorbic acid, or α-ketoglutarate), the “reduction of total production” value is listed as “about 50%”.

The values are drawn from patent publication US6383773B2, “Penicillin conversion” (Massachusetts Institute of Technology, priority 1998, dated 2002).
